The term IC50 denotes the midpoint of a concentration-inhibition curve. One may read the % inhibition as the percentage by which the read-out fell short of the control.

From article PMC6378217, “The lysyl oxidase like 2/3 enzymatic inhibitor, PXS‐5153A, reduces crosslinks and ameliorates fibrosis” (Journal of Cellular and Molecular Medicine, 2018) come the findings set out here.

In assay [1] the target is Recombinant human semicarbazide sensitive amine oxidase (SSAO/VAP1) (Homo sapiens, UniProt Q16853). Kind of assay: SSAO/VAP1 enzymatic activity assay. Format: biochemical. On the procedure: (§1) The measurement of the enzymatic activity of all lysyl oxidase family members was based on the detection of hydrogen peroxide with an Amplex‐Red oxidation assay, as described in Zhou et al26 Recombinant human semicarbazide sensitive amine oxidase (SSAO/VAP1), diamine oxidase (DAO) and monoamine oxidases A and B (MAO‐A and MAO‐B) assays were performed as previously described.27 For detailed enzymatic procedures, see supporting information.
Recombinant human semicarbazide sensitive amine oxidase (SSAO/VAP1), diamine oxidase (DAO) and monoamine oxidases A and B (MAO-A and MAO-B) assays were performed as previously described.

The next assay deals with Dopamine D1 (Homo sapiens, UniProt P21728). Kind of assay: Eurofins Hit Profiling Screen. It counts as binding. The settings on record: 10 μmol/L.
Assay [2] concerns fibrotic marker genes in the liver. Kind of assay: CCl4-induced liver fibrosis: mRNA expression of fibrotic markers in whole liver homogenates. It counts as in vivo, Sprague Dawley rats. The settings on record: PXS-5153A treatment. How it is done: The study was performed by Pharmalegacy with approval from local ethics committee. Sprague Dawley rats were orally administered with 0.25 μL/g Carbon tetrachloride (CCl4) in olive oil solution, starting from day 0, 3 times per week for 6 weeks. Animals were killed 48 hours after the last CCl4 administration. PXS‐5153A was given by oral gavage after 3 weeks of CCl4 administration and continued throughout the remainder of the study at 3 mg/kg (low dose) or 10 mg/kg (high dose) once a day or 10 mg/kg (high dose) three times a week. Alanine aminotransferase (ALT) and aspartate aminotransferase (AST) levels were assessed in the plasma. One lobe of the liver tissue was fixed in 10% formalin, stained for Sirius red and the percentage coverage area was measured. The remainder of the liver was snap frozen and used for protein, hydroxyproline and crosslink analysis.
Total RNA was extracted with the PureLink RNA Mini Kit according to the manufacturer's instructions (Ambion), followed by the cDNA synthesis using SuperScript VILO cDNA Synthesis Kit (Life technologies). Gene expression was measured by the 2^−ΔΔCT method using ABI7500 (Applied Biosystems) with the ABI TaqMan primer sets as specified in the supporting information.
Data was normalised to expression of the internal quantitative control (GAPDH) and expressed as the fold-change compared to the Sham treatment group.

For the next assay, the system named is Myocardial infarction. As to the kind of experiment: Myocardial infarction (left coronary artery occlusion). It counts as in vivo, C57/BL6 mice. To be noted: 25 mg/kg q.d., p.o., 4 weeks; compared to infarcted untreated animals. How it is done: The study was performed by CL Laboratory (Baltimore, USA) with approval from the Institutional Animal Care and Use Committee. Myocardial infarction (MI) was induced in C57/BL6 mice by occluding the left coronary artery. The same surgery but without occluding the left coronary artery was used as a sham control. At 24 hours post‐surgery, animals received echocardiography. Infarcted mice with high cardiac function (FS > 40%) or low cardiac function (FS < 10%) were excluded from the study. The remaining mice were treated q.d., p.o., with 25 mg/kg of PXS‐5153A for 4 weeks. At the end of the experiment, echocardiography was performed on mice to assess left ventricular function and remodelling, followed by heart collection. The heart was fixed with 10% formalin. Fibrosis was assessed in the non‐infarct area. Fibrotic blue area and whole non‐infarct area were measured using computerized planimetry (Image J). The fibrotic area was presented as a percentage of the whole non‐infarct area. Three random fields per heart were counted, averaged and a total of 30‐45 fields per group were measured.

The next assay addresses T1, LOXL2 (Homo sapiens, UniProt Q9Y4K0).
T1 sequence (Q9Y4K0 26-774): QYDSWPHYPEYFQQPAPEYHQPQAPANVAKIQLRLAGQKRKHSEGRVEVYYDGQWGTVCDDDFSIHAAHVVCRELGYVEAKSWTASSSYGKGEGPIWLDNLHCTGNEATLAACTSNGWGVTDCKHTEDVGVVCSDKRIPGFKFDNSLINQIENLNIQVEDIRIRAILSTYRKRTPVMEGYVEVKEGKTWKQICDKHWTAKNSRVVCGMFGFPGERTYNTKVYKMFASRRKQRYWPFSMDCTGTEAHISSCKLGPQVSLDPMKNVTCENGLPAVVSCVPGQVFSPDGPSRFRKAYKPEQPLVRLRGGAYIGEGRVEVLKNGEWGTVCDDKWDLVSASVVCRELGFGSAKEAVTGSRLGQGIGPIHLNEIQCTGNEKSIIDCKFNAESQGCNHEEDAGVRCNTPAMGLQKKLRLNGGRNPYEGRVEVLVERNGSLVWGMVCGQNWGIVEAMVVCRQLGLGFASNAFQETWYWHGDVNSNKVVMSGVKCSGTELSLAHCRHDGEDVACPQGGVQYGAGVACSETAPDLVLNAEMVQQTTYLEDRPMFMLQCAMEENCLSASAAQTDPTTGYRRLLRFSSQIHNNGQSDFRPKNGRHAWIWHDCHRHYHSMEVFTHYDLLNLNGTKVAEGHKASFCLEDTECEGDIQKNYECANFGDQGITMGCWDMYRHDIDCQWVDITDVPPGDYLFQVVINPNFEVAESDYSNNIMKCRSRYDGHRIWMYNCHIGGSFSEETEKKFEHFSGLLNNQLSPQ
Kind of assay: Amplex-Red fluorometric enzymatic activity assay, recombinant human LOXL2. It counts as biochemical. Also on record: purchased R&D Systems. On the procedure:
as §1
The measurement of the enzymatic activity of all lysyl oxidase family members was based on the detection of hydrogen peroxide with an Amplex-Red oxidation assay, as described in Zhou et al.[1]; miniaturised in 384 well format, with the appropriate combination of substrate and assay buffer for each individual enzyme. After a 30 minute pre-incubation of the enzyme at 37 °C with the test compound (or with different incubation times for the time-dependency assay), one volume of reaction mixture containing 120 μM Amplex Red (AR) (Life Technologies), 1.5 U/mL horseradish peroxidase (HRP) (Sigma-Aldrich) and the specific substrate was added to each sample. The relative fluorescence units (RFU) were then measured every 2.5 minutes for 30 minutes at 37°C, excitation 565 nm and emission 590, on a BMG Clariostar Microplate Reader. All the substrates were used at concentrations corresponding to their Km towards the corresponding enzyme, or with a range of different concentrations for the substrate competition experiments.
Lysyl oxidases assay buffer contained 1.2 M urea, 50 mM sodium borate buffer, pH 8.2 and 100 µM β-aminoproprionitrile (BAPN, Sigma-Aldrich) was used for low control.
Recombinant human LOXL1 was expressed and purified from cDNA (GeneArt) and 10 mM putrescine was used as substrate. Recombinant human and mouse LOXL2 (R&D Systems) were challenged with 5 mM putrescine (Sigma-Aldrich) as the substrate. Rat and dog recombinant LOXL2 were amplified and purified in house from HEK-293 clones kindly provided by Dr. Fernando Rodríguez Pascual, Madrid University, and used in the same conditions as for the human form. 2 mM putrescine was used as the substrate for recombinant human LOXL3 (R&D Systems) and LOXL4 (Dr. Fernando Rodríguez Pascual, university of Madrid, Spain) assays.

Where [3] appears, read: 30 minute pre-incubation at 37 °C, average of at least three experiments.

Recombinant human semicarbazide sensitive amine oxidase (SSAO/VAP1), sequence (Q16853 whole entry): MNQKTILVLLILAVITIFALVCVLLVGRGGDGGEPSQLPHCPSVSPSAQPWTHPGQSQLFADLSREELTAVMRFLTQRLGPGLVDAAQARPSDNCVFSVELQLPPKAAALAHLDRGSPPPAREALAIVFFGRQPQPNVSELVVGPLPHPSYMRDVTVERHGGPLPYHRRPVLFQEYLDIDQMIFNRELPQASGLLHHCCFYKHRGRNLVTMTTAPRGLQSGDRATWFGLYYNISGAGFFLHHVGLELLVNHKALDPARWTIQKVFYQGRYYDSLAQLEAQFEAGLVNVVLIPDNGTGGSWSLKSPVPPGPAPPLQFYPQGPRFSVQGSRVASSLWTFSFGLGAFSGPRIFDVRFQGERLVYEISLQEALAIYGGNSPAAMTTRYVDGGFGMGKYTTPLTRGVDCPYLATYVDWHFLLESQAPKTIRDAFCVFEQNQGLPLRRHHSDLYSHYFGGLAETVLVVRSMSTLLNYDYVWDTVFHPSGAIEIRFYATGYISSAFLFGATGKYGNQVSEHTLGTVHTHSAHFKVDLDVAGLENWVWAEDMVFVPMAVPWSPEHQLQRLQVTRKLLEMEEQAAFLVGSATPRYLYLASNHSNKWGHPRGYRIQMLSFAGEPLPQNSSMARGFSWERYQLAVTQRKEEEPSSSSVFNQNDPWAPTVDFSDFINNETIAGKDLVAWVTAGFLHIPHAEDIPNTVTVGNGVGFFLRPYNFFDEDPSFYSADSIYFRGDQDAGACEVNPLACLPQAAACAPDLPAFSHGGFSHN
Dopamine D1, sequence (P21728 whole entry): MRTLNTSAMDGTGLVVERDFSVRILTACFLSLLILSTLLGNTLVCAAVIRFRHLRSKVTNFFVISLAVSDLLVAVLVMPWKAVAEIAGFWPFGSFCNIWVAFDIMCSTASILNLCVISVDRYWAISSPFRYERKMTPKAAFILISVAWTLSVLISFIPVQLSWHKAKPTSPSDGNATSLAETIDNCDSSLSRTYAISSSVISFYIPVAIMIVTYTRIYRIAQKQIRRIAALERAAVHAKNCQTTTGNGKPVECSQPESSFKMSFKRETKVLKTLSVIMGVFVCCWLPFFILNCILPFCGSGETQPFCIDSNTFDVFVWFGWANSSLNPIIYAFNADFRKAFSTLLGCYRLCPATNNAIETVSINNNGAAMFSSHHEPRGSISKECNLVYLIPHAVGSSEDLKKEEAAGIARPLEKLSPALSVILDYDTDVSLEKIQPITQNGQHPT

Turning to `Cc1c(-c2cccc(S(=O)(=O)N(C)C)c2)c2ncccc2n1C/C(F)=C/CN.Cl.Cl` [PXS-5153A], the IC50 in assay [1] was over 30000 nM. The “% inhibition” value on Dopamine D1 is reported as 6%. In assay [2], the “induction of key fibrotic marker genes in the liver” value was “suppressed the induction”. Further, in the assay on Myocardial infarction, the “ejection fraction” value is recorded as “improvement”, the “fractional shortening” value is “improvement” and the “percentage fibrotic coverage area” value was “decrease”. At LOXL2 (setting [3]), the IC50 is 21 nM and the “pIC50 ± SD” value is 7.7 ± 0.23. For the same compound, the “selectivity for LOXL2 over LOX” value on LOXL2 (LOXL2 over LOX) is listed as over 40 fold. Besides, at LOXL2 (LOXL2 over LOXL1), the “selectivity for LOXL2 over LOXL1” value is over 40 fold. For the same compound, on LOXL2 (LOXL2 over other related amine oxidases), the “selectivity over other related amine oxidases” value is listed as over 700 fold. The “rate of inactivation (kinact)” value on LOXL2 (mechanism-based irreversible inhibition, enzyme not given) turned out to be 0.20 min⁻¹. The Ki on LOXL2 (mechanism-based irreversible inhibition, enzyme not given, read-out: apparent binding constant (Ki)) was 1010 nM.
